Experimental data as given in patent publication US7763601B2, “Prevention and treatment of obesity” (N-Gene Research Laboratories, Inc., priority 2006, dated 2010).

Assays:
female NMRI mice = test: Body weight gain induced by olanzapine or clozapine in mice, 15 days; format: in vivo, mouse; conditions: agent alone p.o. for 15 days (olanzapine 0.5, clozapine 1, BGP-15 10 mg/kg); between first and 15th day; control 2.98 g
Method: Groups of female NMRI mice were treated with vehicle (control group) and the agents to be tested for 15 days, perorally. Each group consisted of 10 animals fed with normal laboratory chow and tap water ad libitum. Treatments were performed between 5 and 6 pm, shortly before the dark phase, the primary feeding period of the day. Olanzapine was administered in a dose of 0.5 mg/kg, while clozapine was administered in a dose of 1 mg/kg to induce body weight gain.

female Wistar rats [1] = test: Body weight gain induced by olanzapine in rats, 28 days; format: in vivo, rat; conditions: for Body weight (average in the group): day 28, control 255 g
Method: Groups of female Wistar rats were treated with vehicle (control group) and the agents to be tested for 28 days. Each group consisted of 6 animals fed with normal laboratory chow and tap water ad libitum. The agents to be tested were administered twice daily, at 8 h and 18 h, perorally. The antipsychotic olanzapine was administered in a dose of 1 mg/kg to induce body weight gain.

female Wistar rats [2] = test: Body weight gain induced by risperidone in rats, 21 days; format: in vivo, rat; conditions: for Body weight gain: day 21, control 27 g
Method: The experiments were carried out in eight-week-old female Wistar rats. Each test group consisted of 10 animals fed with normal laboratory chow and tap water ad libitum. The animals were treated with vehicle (control group) and the compounds to be tested for 21 days. In this experimental system, the antipsychotic risperidone was injected subcutaneously once daily in doses of 0.005 and 0.05 mg/kg, respectively to induce body weight gain.

[3] = agent alone, p.o. twice daily for 28 days (olanzapine 1, BGP-15 10, metformin 100, rosiglitazone 3 mg/kg), starting weight 171 g
[4] = agent together with olanzapine 1 mg/kg, p.o. twice daily for 28 days (BGP-15 10, metformin 100, rosiglitazone 3 mg/kg), olanzapine alone 330 g

| SMILES | Body weight gain (average in the group) (female NMRI mice) | effect on average weight relative to the control group (female Wistar rats [1]; agent alone, 28 days) | Body weight (average in the group) (female Wistar rats [1]; [3]) | Body weight (average in the group) (female Wistar rats [1]; [4]) | also measured |
| --- | --- | --- | --- | --- | --- |
| CN1CCN(C2=Nc3cc(Cl)ccc3Nc3ccccc32)CC1 [Clozapine, 8-chloro-11-(4-methyl-1-piperazinyl)-5H-dibenzo[b,e][1,4]diazepine] | 4.11 g | – | – | – | – |
| CN(C)C(=N)N=C(N)N [Metformin, metformin] | – | somewhat higher average weight relative to the control group | 266 g | 331 g | effect on the weight gain induced by olanzapine (female Wistar rats [1]; agent together with olanzapine 1 mg/kg, 28 days): did not reduce |
| Cc1cc2c(s1)Nc1ccccc1N=C2N1CCN(C)CC1 [Olanzapine, 2-methyl-4-(4-methyl-1-piperazinyl)-10H-thieno[2,3-b][1,5]-benzodiazepine] | 3.5 g | high average weight relative to the control group | 330 g | – | – |
| Cc1nc2n(c(=O)c1CCN1CCC(c3noc4cc(F)ccc34)CC1)CCCC2 [Risperidone, risperidone] | – | – | – | – | effect on body weight gain relative to the control group (female Wistar rats [2]; agent alone, 21 days): increased body weight gain relative to the control group; Body weight gain (female Wistar rats [2]; risperidone alone 0.005 mg/kg s.c. once daily): 39.7 g; Body weight gain (female Wistar rats [2]; risperidone alone 0.05 mg/kg s.c. once daily): 41 g |
| CN(CCOc1ccc(CC2SC(=O)NC2=O)cc1)c1ccccn1 (stereo not shown) [Rosiglitazone, rosiglitazone] | – | – | 284 g | 359 g | – |
